Assay [1] deals with P. falciparum NF54 strain. In words: [3H]-hypoxanthine incorporation assay, asexual blood stage. In kind it is cell-based, Plasmodium falciparum. Put shortly:
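Parasites in human RBC were exposed to a 6-step twofold compound dilution in hypoxanthine-free medium (final parasitemia 0.3%, haematocrit 1.25%) at 37 °C under 3% O2/4% CO2. After 48 h, [3H]-hypoxanthine (0.25 µCi/well) was added for 24 h and uptake measured by scintillation counting. IC50 came from four-parameter curve fitting.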

A further assay concerns Dd2b2^31-R1.2. In words: [3H]-hypoxanthine incorporation assay. In kind it is cell-based, Plasmodium falciparum. The procedure: (§1) P. falciparum asexual blood stage parasites were cultured in human red blood cells (RBC, Blutspende SRK, Zurich) at a hematocrit of 5% in RPMI 1640 medium. The RPMI 1640 medium (ThermoFisher Scientific #51800−043) was supplemented with the following: 24 mM NaHCO3 (pH 7.3, Sigma-Aldrich #31437−500G-R), 25 mM Hepes (Sigma-Aldrich #H4034−500G), 0.36 mM hypoxanthine (Sigma-Aldrich # H9377−25G), 100 µg mL^-1 neomycin (Sigma-Aldrich #N6386−100G) and 0.5% Albumax II (Thermo Fisher #11021−045). Additionally, 2 mM choline chloride (279 mg/L, Sigma-Aldrich #C7527−100G) was added to the culture to block the induction of sexual commitment as described. ^[31^] The RPMI 1640 medium and components were dissolved in water (Milli-Q purified), stirred for at least 3 h, and then sterile filtered (0.22 μm pore size) with a bottle top filter (Corning # 431118). Parasite cultures were maintained in an atmosphere of 3% O2, 4% CO2, and 93% N2 in air-tight chambers at 37 °C. The [^3H]-hypoxanthine incorporation assay was used to test compound activity in the specific parasite lines as described.^[32^] Briefly, compounds were dissolved in DMSO (10 mM) and diluted in a hypoxanthine-free culture medium. A limiting dilution was performed over a 64-fold range (6-step twofold dilution) in a 96-well plate in duplicates. For every starting concentration, a limiting dilution was performed over a 64-fold range (6-step twofold dilution) in a 96-well plate in two biological duplicates. Parasites were added at 100 µL to each well containing the compound to obtain a final parasitemia of 0.3% and haematocrit of 1.25%. The plates were incubated for 48 h before 0.25 µCi of [^3H]-hypoxanthine was added per well for an additional 24 h. Parasites were harvested on a glass-fiber filter with a Microbeta FilterMate cell harvester (Perkin Elmer, Waltham, USA) and radioactivity was counted using a MicroBeta2 liquid scintillation counter (Perkin Elmer, Waltham, US). […] The fifty percent inhibitory concentration (IC50) was calculated by using nonlinear, four parameter (variable slope) curve fitting as described ^[33^] after importing into GraphPad Prism (version 8.3.0).
(§2) 31 was used for resistance selection studies using the strain Dd2b2 (kindly provided by David Fidock). Resistance selection was done as described in ^[34^]. As summarized in Table S3, an initial inoculum of 2 x 10^9 asexual blood stage parasites (at 2-2.5% parasitemia) were cultured in three independent flasks. […] Cloning via limiting dilution was performed to obtain resistant clones for further characterization as described in section 2.2.5.

The next assay relates to Dd2b2^31-R2.2. In words: [3H]-hypoxanthine incorporation assay. In kind it is cell-based, Plasmodium falciparum. The procedure: as §1, §2
A further assay deals with Dd2b2^31-R3.1. The assay can be described thus: [3H]-hypoxanthine incorporation assay. In kind it is cell-based, Plasmodium falciparum. The procedure:
as §1, §2

Another assay has as its system Dd2b2^31-R3.2. In words: [3H]-hypoxanthine incorporation assay. It counts as cell-based, Plasmodium falciparum. The protocol:
as §1, §2

In another assay the test system is Dd2b2^pfmdr1 G182S. It counts as cell-based, Plasmodium falciparum. The following applies: Dd2b2^pfmdr1 G182S vs Dd2b2^WT. The protocol: ^[a] 72-h [^3H] hypoxanthhine incorporation assay; Data is expressed as mean±s.d. The assay was performed in three independent biological experiments, each in biological duplicates
as §1

Assay [2] relates to 60S ribosomal protein L7 (W7KAU4). The assay can be described thus: iSPP profiling, P. falciparum lysate. In kind it is binding, Plasmodium falciparum.
Assay [3] deals with Uncharacterized protein (W7JXH4). The assay can be described thus: iSPP profiling, P. falciparum lysate. In kind it is binding, Plasmodium falciparum. The protocol: P. falciparum NF54 lysates were extracted as described in ^[26^] . The parasite asynchronous culture was extracted once 3-5% parasitemia was reached. Saponin lysis was done as described in 2.2.10. Once the parasite pellet was obtained, 2.5 volumes of ice-cold lysis buffer (50 mM Tris/HCl pH 7.5 (Avantor), 5% glycerol (Sigma-Aldrich), 150 mM NaCl (Carl Roth), 1.5 mM MgCl2 (Sigma-Aldrich), 1 mM DTT (Carl Roth), 0.8% IGEPAL CA-630 (Sigma-Aldrich), 1X Halt Protease and Phosphatase Inhibitor-Cocktails EDTA-free (Thermo Fisher Scientific)) was added to the parasite pellet. The lysate solution was subjected to three cycles of flash freeze-thaw with liquid nitrogen and ddH2O at RT. The lysates were centrifuged at 20,000 g for 20 minutes at 4 °C. The soluble protein fraction (supernatant) was collected and the protein content was quantified using the BCA assay (Pierce™ BCA Protein Assay Kit, Thermo Fisher Scientific). The lysate was stored at -80 °C until further use.
The P. falciparum lysate was thawed on ice and diluted to 0.8 mg/mL. […] Subsequently, the samples were incubated at room temperature for 30 minutes using a rotating mixer. After distribution into a 96-well plate, the samples were treated with increasing concentrations of A.E.A. (v/v) ranging from 14% to 28% (14, 16, 18, 20, 22, 24, 26, and 28%). Following a 20-minute incubation at 37°C with shaking at 750 rpm, the samples were centrifuged at 4400 g for 35 minutes to remove precipitated proteins. The soluble fractions were then pooled in equal volumes into a single sample using the Bravo Automated Liquid Handling Platform. The pooled samples were subsequently prepared for LC-MS/MS analysis.
The raw LFQ-DIA intensity values of biological replicates across all conditions were normalized to the median abundance using Excel. The normalized values were then log2 transformed in Perseus (v2.0.10.0).^[58^] Missing values were imputed from a normal distribution (width 0.3, down shift 1.5), and p-values were obtained using a two-sample t-test over replicates with a permutation-based false discovery rate correction (FDR 0.05). Volcano plots were generated in RStudio using the EnhancedVolcano package (v. 1.20.0), ^[59^] plotting proteins by statistical significance (y-axis: –Log10 p-value) versus the magnitude of change (x-axis: log2 fold change of protein intensities for each compound condition relative to the vehicle control). The heatmap was generated in Perseus (v2.0.10.0). Dose-dependent curves were generated using normalized protein intensity values, expressed as a ratio to the vehicle control. Plots were created in GraphPad Prism (v8.3.0) using a nonlinear regression model.

Where [4] appears, read: Plasmodium falciparum, NF54, asexual blood stage, mean ± s.d., read-out: PfNF54 IC50 ± s.d.
Setting [5] is: Plasmodium falciparum, read-out: mean IC50 value ± s.d.

Where two headings read alike, the source gives them in different places. Bounds are passed on as bounds.

On to `CN1CCN(Cc2ccc(O)c(NC(=O)c3cccc(Oc4cc(C(F)(F)F)ccn4)c3)c2)CC1` [Compound 31, N-(2-hydroxy-5-((4-methylpiperazin-1-yl)methyl)phenyl)-3-((4-(trifluoromethyl)pyridin-2-yl)oxy)benzamide], for which the “IC50 ratio relative to NF54 strain” value in assay [1] (NF54) came to 1.00. Also, the IC50 in assay [1] (Plasmodium falciparum, NF54, 72 h, Table S2, NF54 sensitive strain, 72-h assay, mean±s.d., read-out: IC50) was 1.8 ± 0.3 nM; in assay [1] (setting [4]) it was < 5 nM; in assay [1] (asexual blood stage, mean ± s.d., read-out: PfNF54 IC50 ± s.d.), 3.9 nM; in the assay with Dd2b2^31-R1.2 (setting [5]) it was 159 ± 32.9 nM; with Dd2b2^31-R2.2 (setting [5]), 154 ± 26.3 nM; in the assay on Dd2b2^31-R3.1 (setting [5]), 192 ± 35.3 nM. In addition, in the assay with Dd2b2^31-R3.2 (setting [5]), the IC50 was determined as 264 ± 40.5 nM. For the same compound, the “IC50 fold change relative to Dd2b2^WT” value was 11.9 with Dd2b2^31-R1.2 (Dd2b2^31-R1.2), 11.6 in the assay with Dd2b2^31-R2.2 (Dd2b2^31-R2.2), 14.5 with Dd2b2^31-R3.1 (Dd2b2^31-R3.1) and 19.8 in the assay with Dd2b2^31-R3.2 (Dd2b2^31-R3.2). In the assay on Dd2b2^pfmdr1 G182S, the “IC50 fold shift relative to parental clone” value is given as 35.7. Besides, the log2FC is listed as 0.75 in assay [2] (10 µM); 0.94 in assay [2] (50 µM); 0.74 in assay [2] (100 µM); 0.69 in assay [2] (10^-2 µM); 0.33 in assay [2] (10^-3 µM); 1.06 in assay [3] (10 µM). Besides, the log2FC in assay [3] (50 µM) is 0.61; in assay [3] (100 µM compound 31), 0.70; in assay [3] (10^-2 µM) it was 0.54; in assay [3] (10^-3 µM), 0.61.
Regarding `O=C(Nc1cc(CN2CCOCC2)ccc1F)c1cccc(Oc2cc(C(F)(F)F)ccn2)c1` [Compound 34, N-(2-Fluoro-5-(morpholinomethyl)phenyl)-3-((4-(trifluoromethyl)pyridin-2-yl)oxy)benzamide], the “fold lower activity (control compound vs 31)” value in assay [1] (PfNF54 IC50) turned out to be 1000 fold. In addition, in assay [1] (setting [4]), the IC50 is 3730 nM. The same compound had a log2FC in assay [3] (100 µM compound 34) of 0.3904.
